The source of these data is US6750348B1, “Chemokine receptor binding heterocyclic compounds” (AnorMED, Inc., priority 1999, dated 2004).

The first assay deals with HIV-1 NL4.3 or IIIB. Put plainly: Inhibition of HIV-1 (NL4.3 or IIIB) replication in MT-4 cells (MTT). The class given is cell-based. Conditions: Human immunodeficiency virus 1, IIIB, MT4, read-out: EC50, inhibition of HIV-1 NL4.3 or IIIB replication. As for the experimental part:
Compounds were tested for their ability to inhibit HIV-1 replication in MT-4 cells or PBMC's (peripheral blood mononucleocytes) using published procedures (for example, see: Labrosse et al. J. Virol. 1998, 6381-6388; Simmons et al. J. Virol. 1998, 8453-8457; Donzella et al. Nature Medicine 1998, 72-77; Schols et al. J. Exp. Med. 1997, 1383-1388; De Clercq et al. Antiviral Res. 1997, 147-156; and Bridger et al. U.S. patent application Ser. No. 09/111,895). In addition to the above references, experimental methods for performing anti-viral assays can also be found in: Bridger et al. J. Med. Chem. 1995, 38, 366-378; Bridger et al. J. Med. Chem. 1996, 39, 109-119; Bridger et al. U.S. Pat. No. 5,698,546; Bridger et al. U.S. Pat. No. 5,583,131; Bridger et al. U.S. Pat. No. 5,817,807; De Clercq et al. Antimicrob. Agents and Chemother. 1994, 38, 668-674.
1. The HIV-1 strains NL4.3 and IIIB are T-tropic strains that exclusively use CXCR4 as the co-receptor for entry into cells. MT-4 Cells express CXCR4 but not CCR5.
Inhibition of HIV-1 NL4.3 (or IIIB) replication assays were performed as previously described (Bridger et al. J. Med. Chem. 1999, 42, 3971-3981; De Clercq et al. Proc. Natl. Acad. Sci, 1992, 89, 5286-5290; De Clercq et al. Antimicrob. Agents Chemother. 1994, 38, 668-674; Bridger et al. J. Med. Chem. 1995, 38, 366-378). Anti-HIV activity and cytotoxicity measurements were carried out in parallel. They were based on the viability of MT-4 cells that had been infected with HIV in the presence of various concentrations of the test compounds. After the MT-4 cells were allowed to proliferate for 5 days, the number of viable cells was quantified by a tetrazolium-based calorimetric 3-(4,5-dimethylthiazol-2-yl)-2,5-diphenyltetrazolium bromide (MTT) procedure in 96-well microtrays. In all of these assays, viral input (viral multiplicity of infection, MOI) was 0.01, or 100 times the 50% cell culture infective dose (CCID50). The EC50 was defined as the concentration required to protect 50% of the virus-infected cells against viral cytopathicity.
What is called EC50 is the concentration that produces a half-maximal response. In the case of `O=C(NCCN(Cc1ccc(CNCc2ccccn2)cc1)C1CCCc2cccnc21)c1ccc2ccccc2c1` (centres unmarked) [Example 19, N-(2-pyridinylmethyl)-N′-(2-(2-naphthoyl)aminoethyl)-N′-(5,6,7,8-tetrahydro-8-quinolinyl)-1,4-benzenedimethanamine], the EC50 is less than 20 µg/mL.
On the same count and under the same terms, next, `c1ccc(CCN(Cc2ccc(CNCc3ccccn3)cc2)C2CCCc3cccnc32)cc1` (centres unmarked) [Example 69, N-(2-pyridinylmethyl)-N′-(2-phenylethyl)-N′-(5,6,7,8-tetrahydro-8-quinolinyl)-1,4-benzenedimethanamine]: less than 20 µg/mL; `c1ccc(CNCc2ccc(CNC3CCCc4ccccc43)cc2)nc1` (centres unmarked) [Example 4, N-(2-pyridinylmethyl)-N′-(1,2,3,4-tetrahydro-1-naphthalenyl)-1,4-benzenedimethanamine]: less than 20 µg/mL.
Still for that read-out and setting: next, `c1ccc(CNCc2ccc(CNC3CCCCc4cccnc43)cc2)nc1` (centres unmarked) [Example 1, N-(2-pyridinylmethyl)-N′-(6,7,8,9-tetrahydro-5H-cyclohepta[b]pyridin-9-yl)-1,4-benzenedimethanamine]: less than 20 µg/mL; `c1ccc(CNCc2ccc(CN(Cc3nc4ccccc4[nH]3)C3CCCc4cccnc43)cc2)nc1` (centres unmarked) [Example 61, N-(2-pyridinylmethyl)-N′-(1H-benzimidazol-2-ylmethyl)-N′-(5,6,7,8-tetrahydro-8-quinolinyl)-1,4-benzenedimethanamine]: less than 20 µg/mL; `c1ccc(CCCN(Cc2ccc(CNCc3ccccn3)cc2)C2CCCc3cccnc32)cc1` (centres unmarked) [Example 70, N-(2-pyridinylmethyl)-N′-(3-phenylpropyl)-N′-(5,6,7,8-tetrahydro-8-quinolinyl)-1,4-benzenedimethanamine]: less than 20 µg/mL.

The assay is the same for the next values; noted with them: Human immunodeficiency virus 1, IIIB, MT4, read-out: EC50, inhibition of HIV-1 NLA.3 or IIIB replication.
Turning to `c1ccc(Oc2ccc(CN(Cc3ccc(CNCc4ccccn4)cc3)C3CCCCc4cccnc43)cc2)cc1` (centres unmarked) [Example 103, N-[(4-phenoxyphenyl)methyl]-N′-(2-pyridinylmethyl)-N-(6,7,8,9-tetrahydro-5H-cyclohepta[b]pyridin-9-yl)-1,4-benzenedimethanamine], the concentration giving a half-maximal response (EC50) was less than 20 µM.
Same read-out and setting: next, `c1ccc(CNCc2ccc(CN(Cc3cccnc3)C3CCCCc4cccnc43)cc2)nc1` (centres unmarked) [Example 113, N-(3-pyridinylmethyl)-N′-(2-pyridinylmethyl)-N-(6,7,8,9-tetrahydro-5H-cyclohepta[b]pyridin-9-yl)-1,4-benzenedimethanamine]: less than 20 µM.
The same measure, in the same setting: next, `CC(=O)Nc1ccc(CN(Cc2ccc(CNCc3ccccn3)cc2)C2CCCc3cccnc32)cc1` (centres unmarked) [Example 102, N-[(4-acetamidophenyl)methyl]-N′-(2-pyridinylmethyl)-N-(5,6,7,8-tetrahydro-8-quinolinyl)-1,4-benzenedimethanamine]: less than 20 µM; `CCc1ccc(CN(Cc2ccc(CNCc3ccccn3)cc2)C2CCCc3cccnc32)s1` (centres unmarked) [Example 123, N-(5-ethylthiophene-2-ylmethyl)-N′-(2-pyridinylmethyl)-N-(5,6,7,8-tetrahydro-8-quinolinyl)-1,4-benzenedimethanamine]: less than 20 µM; `COc1cc(CN(Cc2ccc(CNCc3ccccn3)cc2)C2CCCCc3cccnc32)cc2c1OCO2` (centres unmarked) [Example 119, N-[(3-methoxy-4,5-methylenedioxyphenyl)methyl]-N′-(2-pyridinylmethyl)-N-(6,7,8,9-tetrahydro-5H-cyclohepta[b]pyridin-9-yl)-1,4-benzenedimethanamine]: less than 20 µM.
The same measure, in the same setting: next, `c1ccc(COc2ccc(CN(Cc3ccc(CNCc4ccccn4)cc3)C3CCCCc4cccnc43)cc2)cc1` (centres unmarked) [Example 105, N-[(4-benzyloxyphenyl)methyl]-N′-(2-pyridinylmethyl)-N-(6,7,8,9-tetrahydro-5H-cyclohepta[b]pyridin-9-yl)-1,4-benzenedimethanamine]: less than 20 µM; `Cn1cccc1CN(Cc1ccc(CNCc2ccccn2)cc1)C1CCCc2cccnc21` (centres unmarked) [Example 138, N-(1-methylpyrrol-2-ylmethyl)-N′-(2-pyridinylmethyl)-N-(5,6,7,8-tetrahydro-8-quinolinyl)-1,4-benzenedimethanamine]: less than 20 µM.
For the compound `Fc1cccc(F)c1CN(Cc1ccc(CNCc2ccccn2)cc1)C1CCCCc2cccnc21` (centres unmarked) [Example 124, N-[(2,6-difluorophenyl)methyl]-N′-(2-pyridinylmethyl)-N-(6,7,8,9-tetrahydro-5H-cyclohepta[b]pyridin-9-yl)-1,4-benzenedimethanamine], the half-maximal effective concentration (EC50) is less than 20 µM.
On the same count and under the same terms, next, `Fc1cccc(F)c1CN(Cc1ccc(CNCc2ccccn2)cc1)C1CCCc2cccnc21` (centres unmarked) [Example 125, N-[(2,6-difluorophenyl)methyl]-N′-(2-pyridinylmethyl)-N-(5,6,7,8-tetrahydro-8-quinolinyl)-1,4-benzenedimethanamine]: less than 20 µM.
As for `Fc1ccc(CN(Cc2ccc(CNCc3ccccn3)cc2)C2CCCc3cccnc32)c(F)c1` (centres unmarked) [Example 137, N-[(2,4-difluorophenyl)methyl]-N′-(2-pyridinylmethyl)-N-(5,6,7,8-tetrahydro-8-quinolinyl)-1,4-benzenedimethanamine], the half-maximal effective concentration (EC50) is less than 20 µM.
On the same count and under the same terms, next, `c1ccc(CNCc2ccc(CN(Cc3ccc4c(c3)OCO4)C3CCCc4cccnc43)cc2)nc1` (centres unmarked) [Example 112, N-[(3,4-methylenedioxyphenyl)methyl]-N′-(2-pyridinylmethyl)-N-(5,6,7,8-tetrahydro-8-quinolinyl)-1,4-benzenedimethanamine]: less than 20 µM; `Cn1c(CN(Cc2ccc(CNCc3ccccn3)cc2)C2CCCc3cccnc32)nc2ccccc21` (centres unmarked) [Example 144, N-(1-methylbenzimidazol-2-ylmethyl)-N′-(2-pyridinylmethyl)-N-(5,6,7,8-tetrahydro-8-quinolinyl)-1,4-benzenedimethanamine]: less than 20 µM.
On the same count and under the same terms, next, `N#Cc1ccc(CN(Cc2ccc(CNCc3ccccn3)cc2)C2CCCc3cccnc32)cc1` (centres unmarked) [Example 101, N-[(4-cyanophenyl)methyl]-N′-(2-pyridinylmethyl)-N-(5,6,7,8-tetrahydro-8-quinolinyl)-1,4-benzenedimethanamine]: less than 20 µM.
Same read-out and setting: next, `COc1cccc(CN(Cc2ccc(CNCc3ccccn3)cc2)C2CCCc3cccnc32)c1OC` (centres unmarked) [Example 95, N-[(2,3-dimethoxyphenyl)methyl]-N′-(2-pyridinylmethyl)-N-(5,6,7,8-tetrahydro-8-quinolinyl)-1,4-benzenedimethanamine]: less than 20 µM.
As for `Oc1ccccc1CN(Cc1ccc(CNCc2ccccn2)cc1)C1CCCc2cccnc21` (centres unmarked) [Example 139, N-[(2-hydroxyphenyl)methyl]-N′-(2-pyridinylmethyl)-N-(5,6,7,8-tetrahydro-8-quinolinyl)-1,4-benzenedimethanamine], the concentration for a half-maximal effect (EC50) is less than 20 µM.
On the same count and under the same terms, next, `CCCOc1ccc(CN(Cc2ccc(CNCc3ccccn3)cc2)C2CCCCc3cccnc32)cc1` (centres unmarked) [Example 116, N-[(4-propoxyphenyl)methyl]-N′-(2-pyridinylmethyl)-N-(6,7,8,9-tetrahydro-5H-cyclohepta[b]pyridin-9-yl)-1,4-benzenedimethanamine]: less than 20 µM; `c1ccc(CNCc2ccc(CN(Cc3ccc4ccccc4n3)C3CCCCc4cccnc43)cc2)nc1` (centres unmarked) [Example 158, N-(2-quinolylmethyl)-N′-(2-pyridinylmethyl)-N-(6,7,8,9-tetrahydro-5H-cyclohepta[b]pyridin-9-yl)-1,4-benzenedimethanamine]: less than 20 µM; `c1ccc(CNCc2ccc(CN(Cc3cccnc3)C3CCCc4cccnc43)cc2)nc1` (centres unmarked) [Example 141, N-(3-pyridinylmethyl)-N′-(2-pyridinylmethyl)-N-(5,6,7,8-tetrahydro-8-quinolinyl)-1,4-benzenedimethanamine]: less than 20 µM.
Same read-out and setting: next, `N#Cc1cccc(CN(Cc2ccc(CNCc3ccccn3)cc2)C2CCCc3cccnc32)c1` (centres unmarked) [Example 121, N-[(3-cyanophenyl)methyl]-N′-(2-pyridinylmethyl)-N-(5,6,7,8-tetrahydro-8-quinolinyl)-1,4-benzenedimethanamine]: less than 20 µM; `Oc1cccc2ccc(CN(Cc3ccc(CNCc4ccccn4)cc3)C3CCCCc4cccnc43)nc12` (centres unmarked) [Example 157, N-[(8-hydroxy)-2-quinolylmethyl]-N′-(2-pyridinylmethyl)-N-(6,7,8,9-tetrahydro-5H-cyclohepta[b]pyridin-9-yl)-1,4-benzenedimethanamine]: less than 20 µM.
